Experimental data from US20120083476A1, “HETEROARYL-SUBSTITUTED SPIROCYCLIC DIAMINE UREA MODULATORS OF FATTY ACID AMIDE HYDROLASE” (Janssen Pharmaceutica NV, priority 2009, published 2012).
Structures can show the parent of a compound that is named as a salt. Where two headings read alike, the source gives them in different places.

Key:
Rat FAAH = molecular target: T1, Rat FAAH (Rattus norvegicus, UniProt P97612); assay: Assay Method 2: rat FAAH assay (3H-anandamide hydrolysis in cell homogenate); format: biochemical
T1 construct: expressed in transfected cells; host or cells: SK-N-MC cells stably transfected with rat FAAH cDNA (G418 selection)
T1 sequence (P97612 1-579): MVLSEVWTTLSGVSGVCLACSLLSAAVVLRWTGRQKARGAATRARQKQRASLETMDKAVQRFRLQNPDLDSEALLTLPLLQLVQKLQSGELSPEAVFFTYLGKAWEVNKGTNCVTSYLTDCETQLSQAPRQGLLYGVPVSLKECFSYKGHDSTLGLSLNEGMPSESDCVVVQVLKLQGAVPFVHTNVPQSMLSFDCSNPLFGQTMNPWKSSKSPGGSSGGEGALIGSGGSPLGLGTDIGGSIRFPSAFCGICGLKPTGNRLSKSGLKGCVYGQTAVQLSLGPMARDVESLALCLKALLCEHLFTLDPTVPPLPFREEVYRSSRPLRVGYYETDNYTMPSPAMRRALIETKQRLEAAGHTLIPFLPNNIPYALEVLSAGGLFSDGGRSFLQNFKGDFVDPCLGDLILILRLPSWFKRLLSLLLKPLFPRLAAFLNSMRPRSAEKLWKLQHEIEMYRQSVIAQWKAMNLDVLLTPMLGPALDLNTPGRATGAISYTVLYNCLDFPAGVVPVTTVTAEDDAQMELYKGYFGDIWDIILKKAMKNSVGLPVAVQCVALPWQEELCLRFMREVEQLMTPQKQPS
Outline: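 Homogenates of T84 cells or SK-N-MC cells stably transfected with rat FAAH, in pH 9 Tris/EDTA/glycerol/Triton buffer, incubated 1 h at room temperature with 3H-anandamide. Released labeled ethanolamine separated from substrate on activated charcoal and counted by scintillation; values averaged over runs.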

FAAH = molecular target: T2, FAAH (Homo sapiens, UniProt O00519); assay: Assay Method 1: human FAAH assay (3H-anandamide hydrolysis in cell homogenate); format: biochemical; set-up: expressed in transfected cells; host or cells: SK-N-MC cells stably transfected with human FAAH cDNA (G418 selection); alternatively T84 cell pellets
T2 sequence (O00519 1-579): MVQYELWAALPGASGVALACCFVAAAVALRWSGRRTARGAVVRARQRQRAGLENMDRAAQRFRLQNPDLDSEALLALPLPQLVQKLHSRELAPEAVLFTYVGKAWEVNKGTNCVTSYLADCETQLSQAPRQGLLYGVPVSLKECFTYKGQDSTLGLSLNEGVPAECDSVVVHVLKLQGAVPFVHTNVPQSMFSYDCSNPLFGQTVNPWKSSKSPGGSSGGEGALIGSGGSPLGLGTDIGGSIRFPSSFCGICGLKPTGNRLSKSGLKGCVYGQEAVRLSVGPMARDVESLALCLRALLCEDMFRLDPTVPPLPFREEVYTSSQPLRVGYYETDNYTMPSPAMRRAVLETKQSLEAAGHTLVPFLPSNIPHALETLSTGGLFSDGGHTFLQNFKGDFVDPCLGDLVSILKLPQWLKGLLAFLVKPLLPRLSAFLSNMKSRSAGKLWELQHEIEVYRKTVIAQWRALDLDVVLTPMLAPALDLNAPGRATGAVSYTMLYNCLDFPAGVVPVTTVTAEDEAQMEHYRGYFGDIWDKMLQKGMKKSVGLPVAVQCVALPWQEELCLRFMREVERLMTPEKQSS
Outline: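 Homogenates of T84 cells or SK-N-MC cells stably transfected with human FAAH, in pH 9 Tris/EDTA buffer with 0.02% Triton X-100. Incubated 1 h at rt with compound and 80 nM (final) [3H-ethanolamine]-anandamide. Released 3H-ethanolamine separated on charcoal filters and counted by scintillation.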

Row | IC50 (Rat FAAH; read-out: Assay 2 IC50) [nM] | IC50 (FAAH; read-out: Assay 1 IC50) [nM] | Compound | IC50 (Rat FAAH) [nM] | IC50 (FAAH) [nM]
1 | 120 | 1600 | O=C(Nc1cnccc1Cl)N1CCCC2(CN(Cc3cccc(Oc4ccc(Cl)cc4)c3)C2)C1 [Example 30, 2-(3-(4-chlorophenoxy)benzyl)-N-(4-chloropyridin-3-yl)-2,6-diazaspiro[3.5]nonane-6-carboxamide] |  | 
2 | 10 | 70 | O=C(Nc1cnc2ccccc2c1)N1CCC2(CCN(Cc3cccc(Oc4ccc(Cl)cc4)c3)CC2)CC1 [Example 33, 9-(3-(4-chlorophenoxy)benzyl)-N-(quinolin-3-yl)-3,9-diazaspiro[5.5]undecane-3-carboxamide] |  | 
3 | 120 | > 10000 | O=C(Nc1cnc2ccccn12)N1CCCC2(CN(Cc3cccc(Oc4ccc(Cl)cc4)c3)C2)C1 [Example 34, 2-(3-(4-chlorophenoxy)benzyl)-N-(imidazo[1,2-a]pyridin-3-yl)-2,6-diazaspiro[3.5]nonane-6-carboxamide] |  | 
4 | 700 | 30 | O=C(Nc1cccnc1)N1CC2(CN(Cc3cccc(Oc4ccc(Cl)cc4)c3)C2)C1 [Example 35, 6-(3-(4-chlorophenoxy)benzyl)-N-(pyridin-3-yl)-2,6-diazaspiro[3.3]heptane-2-carboxamide] |  | 
5 | 30 | 10 | O=C(Nc1cnccc1Cl)N1CC2(CN(Cc3cccc(Oc4ccc(Cl)cc4)c3)C2)C1 [Example 36, 6-(3-(4-chlorophenoxy)benzyl)-N-(4-chloropyridin-3-yl)-2,6-diazaspiro[3.3]heptane-2-carboxamide] |  | 
6 | 60 | 90 | O=C(Nc1cccnc1)N1CC2(CCN(Cc3cccc(Oc4ccc(Cl)cc4)c3)CC2)C1 [Example 37, 7-[3-(4-Chloro-phenoxy)-benzyl]-2,7-diaza-spiro[3.5]nonane-2-carboxylic acid pyridin-3-ylamide] |  | 
7 | 20 | 820 | O=C(Nc1noc2ccccc12)N1CC2(CCN(Cc3cccc(Oc4ccc(Cl)cc4)c3)CC2)C1 [Example 38, 7-[3-(4-Chloro-phenoxy)-benzyl]-2,7-diaza-spiro[3.5]nonane-2-carboxylic acid benzo[d]isoxazol-3-ylamide] |  | 
8 | 20 | 20 | O=C(Nc1ccc(-n2nccn2)nc1)N1CC2(CCN(Cc3cccc(Oc4ccc(Cl)cc4)c3)CC2)C1 [Example 39, 7-[3-(4-Chloro-phenoxy)-benzyl]-2,7-diaza-spiro[3.5]nonane-2-carboxylic acid (6-[1,2,3]triazol-2-yl-pyridin-3-yl)-amide] |  | 
9 | 40 | 60 | O=C(Nc1cnc2[nH]ccc2c1)N1CC2(CCN(Cc3cccc(Oc4ccc(Cl)cc4)c3)CC2)C1 [Example 40, 7-[3-(4-Chloro-phenoxy)-benzyl]-2,7-diaza-spiro[3.5]nonane-2-carboxylic acid (1H-pyrrolo[2,3-b]pyridin-5-yl)-amide, trifluoroacetic acid salt] |  | 
10 | 80 | 20 | O=C(Nc1ccc(-n2nccn2)cc1)N1CC2(CCN(Cc3cccc(Oc4ccc(Cl)cc4)c3)CC2)C1 [Example 41, 7-[3-(4-Chloro-phenoxy)-benzyl]-2,7-diaza-spiro[3.5]nonane-2-carboxylic acid (4-[1,2,3]triazol-2-yl-phenyl)-amide, trifluoroacetic acid salt] |  | 
11 | 1000 | > 10000 | O=C(Nc1ncccn1)N1CC2(CCN(Cc3cccc(Oc4ccc(Cl)cc4)c3)CC2)C1 [Example 42, 7-[3-(4-Chloro-phenoxy)-benzyl]-2,7-diaza-spiro[3.5]nonane-2-carboxylic acid pyrimidin-2-ylamide, trifluoroacetic acid salt] |  | 
12 |  |  | O=C(Nc1ccncn1)N1CC2(CCN(Cc3cccc(Oc4ccc(Cl)cc4)c3)CC2)C1 [Example 43, 7-[3-(4-Chloro-phenoxy)-benzyl]-2,7-diaza-spiro[3.5]nonane-2-carboxylic acid pyrimidin-4-ylamide, trifluoroacetic acid salt] | 5440 | 5660
